Laboratory results: US20040038894A1, “Compounds for modulating cell negative regulations and biological applications thereof” (INSTITUT NATIONAL DE LA SANTE ET DE LA RECHERCHE MEDICALE …, priority 1996, published 2004)
Where no end group is shown, it is not given here. [ ]: non-standard residue; d: D form. The star is where a group is joined. Biotin = O=C1N[C@H]2[C@H](CS[C@H]2CCCCC(=O)*)N1; pY = N[C@@H](Cc1ccc(OP(=O)(O)O)cc1)C(=O)O

What was measured:
[1] = system: melanoma-specific CTL clones; assay: Auto-presentation assay, TNF release; type: cell-based, human; details: clone M117-14, TYR peptide 10 μM, mAb without cross-linking
Protocol: (§1) 5×10^4 CTLs were incubated with indicated concentrations of peptides in 100 μl final volume. After two hours, supernatants were harvested to test the TNF secretion and lysis was estimated by flow cytometry on the basis of size/granularity patterns as previously described. TNF determinations were performed by a biologic assay using cytotoxicity on the sensitive WEHI 164 clone 13 cells, as compared to a standard curve established using rTNF-β (Genzyme).
Results are illustrated by FIG. 13 showing that CD94-NKG2A inhibits the antigen-specific TNF production by CTL clones. In FIG. 13, the melanoma specific CTL clones M117-14 and 7-10 were stimulated in an auto-presentation assay with their respective cognate peptides (i.e.:EAA for 7-10 and M77-84, and TYR for M117-14) at a concentration of 10 μM, in the presence or indicated mAbs. TNF release was assessed in the supernatant by a biological assay using the WEHI 164, a TNF sensitive cell line. Data from one representative experiment out of five, are expressed as mean TNF (pg/ml)±SD of triplicate samples.

[2] = system: melanoma-specific CTL clones; assay: Auto-presentation assay, CTL lysis; type: cell-based, human; details: clone M117-14, TYR peptide, 2 hours
Protocol: as §1
Results are illustrated by FIG. 14 showing the negative regulation of antigen-induced CTL clone cytotoxicity by CD94-NKG2A. In FIG. 14, cells from the melanoma specific CTL clone M117-14 were stimulated in an auto-presentation assay with the indicated concentrations of cognate peptide (TYR). Cytotoxicity was measured, in the presence or absence of anti-CD94 mAb (HB-3B1). Cell lysis was estimated by flow cytometry on the basis of size/granularity patterns after auto-presentation in a short term assay (2 hours). Data shown are representative from 5 independent experiments.

[3] = target: T1, GST-SHIP.SH2 fusion protein (murine, UniProt Q9ES52 8-104); assay: SPR (BIAcore), phosphopeptide (25 RU) on streptavidin chip, FIG. 16
T1 construct: also called SH2 domain of SHIP; not shown: Glutathione S-transferase (GST) fusion partner
T1 sequence (looked up): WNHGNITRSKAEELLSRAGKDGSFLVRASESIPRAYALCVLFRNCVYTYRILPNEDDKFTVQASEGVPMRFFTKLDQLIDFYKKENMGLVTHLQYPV
Protocol: Surface plasmon resonance measurements were performed on a BIAcore apparatus (BIAcore). The GST-SHP1.SH2(NC), GST-SHP2.SH2(NC) and GST-SHIP.SH2 fusion proteins generated from the murine phosphatase cDNAs, were purified from DH5α lysates as previously described. Before their use in BIAcore experiments, fusion proteins were dialyzed in HBS buffer pH 7.4 (10 mM HEPES, 150 mM NaCl, 3.4 mM EDTA). Protein purity was assessed by 12.5% SDS-PAGE, and Coomassie blue staining. The running buffer used in all BIAcore experiments consisted of HBS buffer supplemented with 0.05% surfactant P20. Equilibrium constant determination (koff and kₒₙ) was performed using BIAevaluation 2.0 software. The equilibrium dissociation constants KD were calculated from the koff/kₒₙ ratio.
The measurement of phosphorylated peptide binding to GST-SHP-1.SH2(N+C) and GST-SHP-2.SH2(N+C) fusion proteins was performed at a constant 5 μl/min flow rate. […] Results are expressed as corrected resonance units (CRU) corresponding to the raw RU values after subtraction of background RU value due to the injection medium, koff and kₒₙ were calculated from three independent measurements using the BIAevaluation 2.0 software. In addition, kₒₙ was calculated as the slope of the curve kg=kₒₙ×c−koff, where koff is the off-rate constant and c is the concentration of the soluble recombinant GST fusion proteins. […]

[4] = target: T2, SHIP polyinositol phosphatase from RBL-2H3 cell lysates (rat (cell line RBL-2H3), UniProt P97573 1-1190, limits assumed); assay: cell lysate adsorption to peptide beads, immunoblot (RBL-2H3), FIG. 15A
T2 construct: Detected by immunoblot with anti-SHIP antiserum
T2 sequence (looked up): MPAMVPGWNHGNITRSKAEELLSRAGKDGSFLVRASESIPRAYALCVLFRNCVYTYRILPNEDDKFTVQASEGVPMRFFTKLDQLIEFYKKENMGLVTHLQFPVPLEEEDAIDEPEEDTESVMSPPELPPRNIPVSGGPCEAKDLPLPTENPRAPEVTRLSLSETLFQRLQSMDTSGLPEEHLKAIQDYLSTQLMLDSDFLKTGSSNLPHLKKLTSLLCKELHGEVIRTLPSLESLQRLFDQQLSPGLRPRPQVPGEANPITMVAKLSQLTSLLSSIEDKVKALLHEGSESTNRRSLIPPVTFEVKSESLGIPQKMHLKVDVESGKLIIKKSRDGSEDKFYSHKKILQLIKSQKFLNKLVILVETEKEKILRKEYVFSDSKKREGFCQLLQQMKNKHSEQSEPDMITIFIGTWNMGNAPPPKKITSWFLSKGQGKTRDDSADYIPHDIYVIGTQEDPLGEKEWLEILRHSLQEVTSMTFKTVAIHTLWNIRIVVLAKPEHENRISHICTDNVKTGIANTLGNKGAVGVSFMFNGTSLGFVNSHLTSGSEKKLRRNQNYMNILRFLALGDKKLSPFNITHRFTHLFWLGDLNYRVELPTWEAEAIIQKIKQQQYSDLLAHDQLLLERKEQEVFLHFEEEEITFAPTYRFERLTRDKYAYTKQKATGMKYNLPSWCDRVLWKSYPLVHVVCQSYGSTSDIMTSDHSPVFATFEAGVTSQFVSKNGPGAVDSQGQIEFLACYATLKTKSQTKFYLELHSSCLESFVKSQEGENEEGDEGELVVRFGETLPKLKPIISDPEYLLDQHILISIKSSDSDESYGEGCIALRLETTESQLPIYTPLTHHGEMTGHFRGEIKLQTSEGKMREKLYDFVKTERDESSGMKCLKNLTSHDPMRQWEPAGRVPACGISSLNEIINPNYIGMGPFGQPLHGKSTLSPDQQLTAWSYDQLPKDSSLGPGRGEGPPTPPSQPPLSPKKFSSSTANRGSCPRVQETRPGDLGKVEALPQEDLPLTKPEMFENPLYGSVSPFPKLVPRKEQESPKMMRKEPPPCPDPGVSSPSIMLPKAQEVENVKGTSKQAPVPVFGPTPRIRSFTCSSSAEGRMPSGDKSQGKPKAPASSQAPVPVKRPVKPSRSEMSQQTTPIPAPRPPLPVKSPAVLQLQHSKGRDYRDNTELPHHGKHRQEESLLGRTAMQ
Protocol: In an attempt to characterize the function of these putative ITIMs, cell lysates were incubated with phosphorylated and nonphosphorylated synthetic peptides corresponding to the N-terminal and the C-terminal I/VxYxxL stretches present in NKG2A intracytoplasmic domain. Cell lysates absorbed to peptides were then assayed by immunoblotting for the presence of the phosphatases known to interact with phosphorylated ITIMs, i.e. the protein tyrosine phosphatases SHP-1 and SHP-2, as well as the polyinositol phosphate phosphatase, SHIP. In parallel, lysates adsorption were performed using control peptides corresponding to ITIMs present in Ig-like ITIM bearing receptors such as human KIRs (p58.2/CD158b, a receptor for HLA-Cw3) and mouse FcγRIIB, as well as in mouse lectin-like ITIM-bearing receptor, such as Ly-49A.
As shown in FIG. 15A (lanes 1 and 2), both N- and C-terminal I/VxYxxL stretches present in NKG2A associate with SHP-1 and SHP-2 in vitro, but no binding to SHIP was detected. Similar patterns of association were obtained using the phosphorylated ITIM peptides of […] and p58.2 KIR (FIG. 15A, lanes 3 to 5). In contrast, FcγRIIB phosphorylated ITIM peptides also associate with SHIP (FIG. 15A, lane 6). No association of phosphatases with nonphosphorylated peptides corresponding to FcγRIIB (FIG. 15A, lane 7) and NKG2A N- and C-terminal I/VxYxxL stretches was detected. When nonphosphorylated and phosphorylated peptides were used to adsorb lysates prepared from ³⁵S methionine/cysteine-labeled cells, only two bands around 64 and 68 kDa selectively associate with both phosphorylated NKG2A N- and C-terminal I/VxYxxL stretches, as compared to nonphosphorylated ones (FIG. 15B). The 64 and 68 kDa proteins which bind to phosphorylated NKG2A peptides correspond to SHP-1 and SHP-2 apparent molecular weight respectively, supporting the immunoblotting results. Therefore, our results define the two NKG2A I/VxYxxL stretches as ITIMs which appear to function similarly to other ITIMs present in inhibitory receptors for MHC class I molecules, i.e. KIRs and Ly-49 molecules. Using recombinant soluble tandem SH2 domains of SHP-1 and SHP-2, we confirmed by surface plasmon resonance that both NKG2A ITIM phosphopeptides directly associate with the SH2 domains of SHP-1 and SHP-2, but not with the SH2 domain of SHIP (FIG. 16).

binding result [3] | binding result [4] | Molecule | TNF production [1] | CTL lysis (auto-toxicity) [2]
– | – | Y1MDGTMSQV9 [TYR] | released TNF | lysed in a dose-dependent manner
no binding (tested: 100 nM) | no binding | Biotin-MDNQGVI[pY]SDLNL (also called NKG2-A N-terminal ITIM; NKG2A/B phosphorylated ITIM peptide) [phosphorylated NKG2A N-term peptide (N-terminal ITIM)] | – | –
